{"source": "patent US20100285081A1", "about": "“Bactericidal Nanofibers, and Methods of Use Thereof” (MASSACHUSETTS INSTITUTE OF TECHNOLOGY, priority 2007, published 2010)", "origin": "cited, not measured here", "key": {"E. coli": {"tested_on": "E. coli", "details": "from Buxbaum et al. 2006"}, "S. epidermidis": {"tested_on": "S. epidermidis", "details": "from Buxbaum et al. 2006"}}}
{"smiles": "[H]/N=C(\\N/C(=N/[H])NCCCCCCNC(=N)NC(=N)Nc1ccc(Cl)cc1)Nc1ccc(Cl)cc1", "note": "[CHX, chlorhexidine]", "values": [{"measurement": "minimum inhibitory concentration of CHX", "setting": "E. coli", "value": "2 to 8", "unit": "µg/mL"}, {"measurement": "minimum inhibitory concentration of CHX", "setting": "S. epidermidis", "value": "0.5 to 2", "unit": "µg/mL"}]}
